Reference: patent US20260297164A1, “ANTI-FIBROTIC PEPTIDES AND USES THEREOF” (Deackt, Inc., priority 2021, published 2026)

Key:
[1] = test system: Col1a1 expression in CD148-deficient (Ptprj−/−) lung fibroblasts; assay: Col1a1 qPCR in CD148-deficient lung fibroblasts with NF-κB inhibitor; assay type: cell-based, mouse; conditions: CD148-deficient cells, TGF-β1 10 ng/ml; Bay 11-7082 10 μM
Method: FIG. 4. CD148 deficiency enhances PI3K/Akt/mTOR signaling which results in enhanced NF-κB activation in lung fibroblasts. (A) WT and Ptprj−/− cells were stimulated with TGF-β1 (10 ng/ml) for 24 h. Cells were lysed and p-IKKα/β, p-IκB and IκB were measured by western blot (n=4). GAPDH was the standard. Bar graphs at right are the quantitation of corresponding proteins. (B) WT and Ptprj−/− cells were stimulated with TGF-β1 (10 ng/ml) for 24 h. Cells were subjected to cytosol and nuclear protein fractionation. The p65 (NF-κB subunit) nuclear translocation was measured by western blot (n=3). β-actin and PCNA were used as cytosolic and nuclear markers, respectively. Bar graphs at right are the quantitation of corresponding proteins. p65 cytosolic/nuclear ratio is shown (far right). Data are mean±s.e.m. *P<0.05, by Kurskal-Wallis non-parametric test (C-D) WT or Ptprj−/− cells were transfected with scr or shp62 (lentivirus). Cells were stimulated with TGF-β1 (10 ng/ml) in the presence or absence or wortmannin (wort, 50 nM) or rapamycin (rapa, 1 μM). At 24 h cells were harvested and subjected to qPCR for Col1a1 or Acta2 (n=5). […] Luciferase activity were measured as described in methods (n=4 or 7). […] (F) WT or Ptprj−/− cells were stimulated with TGF-β1 (10 ng/ml) in the presence or absence of the NF-κB inhibitor Bay 11-7082 (10 μM). mRNA levels of Col1a1 were measured by qPCR (n=5 for each condition). […]

[2] = test system: α-SMA in CD148-deficient (Ptprj−/−) lung fibroblasts; assay: α-SMA western blot in CD148-deficient lung fibroblasts with PI3K/mTOR inhibitors; assay type: cell-based, mouse; conditions: CD148-deficient cells, TGF-β1 10 ng/ml; wortmannin 50 nM or rapamycin 1 μM, 24 h
Method: FIG. 3. CD148 deficiency enhances PI3K/Akt/mTOR signaling which results in low autophagy, high p62 expression in lung fibroblasts. (A) Mouse lung fibroblasts were isolated from Ptprj^fl/fl Col1a2^Cre-ER(T)+/0 mice (Ptprj−/−) and Col1a2^Cre-ER(T)+/0 mice (WT) and then treated with 4-OHT (1 μM) for 24 h. After 4-OHT treatment, cells were exposed to TGF-β1 (10 ng/ml) for 24 h. After stimulation, cells were harvested, and the expression of p-p85 (Tyr458), p-Akt (Ser473), pmTOR (Ser2448), p-p70 S6 kinase (Thr389), p-S6 ribosomal protein (Ser235/236) and CD148 (n=4 for each condition) in lysates was determined by Western immunoblotting and corresponding densitometry (ImageJ software). Data were normalized to corresponding dephospho-forms or GAPDH. (B) WT and Ptprj−/− cells were stimulated with TGF-β1 (10 ng/ml) for 24 h. Then cells were lysed and LC3-I and -II and p62 were measured by western blot (n=4). […] Then, autophagy flux was measured by LC3-II accumulation in the absence or presence of lysosomal acidification inhibitor chloroquine (25 μM) at 2, 4 and 6 h (n=4). […] LC3 puncta positive cells were quantified using ImageJ (D). […]
Polyacrylamide gel electrophoresis and immunoblotting were performed according to standard methods. […] The signals were detected by ECL (Thermo Fisher Scientific, Waltham, MA). […]

[3] = test system: IPF-derived lung fibroblasts; assay: FasL-induced cell death (MTT cell viability); assay type: cell-based, human; conditions: FasL 100 and 200 ng/ml, 24 h
Method: FIG. 1. […] (A) CD148 protein expression levels were determined in lung homogenates from control (n=5) and IPF (n=5) patients. (Graphic) Densitometry (by ImageJ software). (B) Lung specimens from control (n=9) and IPF (n=10) patients were homogenized and subjected to total RNA isolation. Ptprj (CD148) mRNA levels were assessed using qPCR. (C) Single cell suspensions of control (n=6) and IPF (n=7) were enriched for fibroblasts. mRNA expression of CD148 in fibroblast-enriched cell populations were assessed using qPCR. (D) Representative fluorescence microscopy images of CD148 (Cy3, red), Vimentin (GFP, green) and DAPI (blue) in control (n=4) and IPF lung tissue (n=5). Scale bar=100 μm. […] CD148 fluorescence intensity was quantified by ImageJ. […] (E) CD148 protein levels were measured by western blot (n=3). (F) mRNA levels of fibronectin (Fn) and Collagen 1a1 (Col1a1) were measured using qPCR (n=5). […] After treatment, cell viability was determined using the MTT assay (n=5). […] Clusters labeled as fibroblast and myofibroblast were extracted from our previously published scRNA-seq data set and analysed using R-program. […] P values were calculated by Mann-Whitney unpaired test. (L) mRNA expression of CD148 in sorted AT1 and AT2 cells were assessed using qPCR. […] After treatment, cell viability was assessed with the MTT assay (n=4). […]
FIG. 6. […] (B) mRNA levels of Fn and Col1a1 were measured by qPCR (n=5). […]

Molecule: Cc1ccc(S(=O)(=O)/C=C/C#N)cc1 [Bay 11-7082]
- TGF-β1-dependent increase in Col1a1 expression [1]: inhibited

Molecule: CO[C@H]1C[C@@H]2CC[C@@H](C)[C@@](O)(O2)C(=O)C(=O)N2CCCC[C@H]2C(=O)O[C@H]([C@H](C)C[C@@H]2CC[C@@H](O)[C@H](OC)C2)CC(=O)[C@H](C)/C=C(\C)[C@@H](O)[C@@H](OC)C(=O)[C@H](C)C[C@H](C)/C=C/C=C/C=C/1C [rapamycin]
- increase of a-SMA in response to TGF-β1 [2]: attenuated

Molecule: COC[C@H]1OC(=O)c2coc3c2[C@@]1(C)C1=C(C3=O)[C@@H]2CCC(=O)[C@@]2(C)C[C@H]1OC(C)=O [wortmannin]
- increase of a-SMA in response to TGF-β1 [2]: attenuated

B1: FasL: Soluble recombinant human FasL (protein, UniProt P48023 103-281, looked up)
extracellular domain: QLFHLQKELAELRESTSQMHTASSLEKQIGHPSPPPEKKELRKVAHLTGKSNSRSMPLEWEDTYGIVLLSGVKYKKGGLVINETGLYFVYSKVYFRGQSCNNLPLSHKVYMRNSKYPQDLVMMEGKMMSYCTTGQMWARSSYLGAVFNLTSADHLYVNVSELSLVNFEESQTFFGLYKL
modifications: extracellular domain soluble recombinant
- cell death induced by Fas ligand [3]: resistant to cell death
